# Biological target: T1, NTRK3 (TRKC) (Homo sapiens, UniProt Q16288)
# T1 construct: purchased Thermo Fisher Scientific (Life Technologies) SelectScreen
# Experiment: SelectScreen Z'LYTE
# Format: biochemical
# Method in brief: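 SelectScreen broad panel; activity (Z'LYTE, Adapta) plus binding formats. ATP: Km app for CSF1R Z'LYTE; 10 for CAMK1 Adapta. Readout = % per kinase.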
# T1 sequence (Q16288 32-839): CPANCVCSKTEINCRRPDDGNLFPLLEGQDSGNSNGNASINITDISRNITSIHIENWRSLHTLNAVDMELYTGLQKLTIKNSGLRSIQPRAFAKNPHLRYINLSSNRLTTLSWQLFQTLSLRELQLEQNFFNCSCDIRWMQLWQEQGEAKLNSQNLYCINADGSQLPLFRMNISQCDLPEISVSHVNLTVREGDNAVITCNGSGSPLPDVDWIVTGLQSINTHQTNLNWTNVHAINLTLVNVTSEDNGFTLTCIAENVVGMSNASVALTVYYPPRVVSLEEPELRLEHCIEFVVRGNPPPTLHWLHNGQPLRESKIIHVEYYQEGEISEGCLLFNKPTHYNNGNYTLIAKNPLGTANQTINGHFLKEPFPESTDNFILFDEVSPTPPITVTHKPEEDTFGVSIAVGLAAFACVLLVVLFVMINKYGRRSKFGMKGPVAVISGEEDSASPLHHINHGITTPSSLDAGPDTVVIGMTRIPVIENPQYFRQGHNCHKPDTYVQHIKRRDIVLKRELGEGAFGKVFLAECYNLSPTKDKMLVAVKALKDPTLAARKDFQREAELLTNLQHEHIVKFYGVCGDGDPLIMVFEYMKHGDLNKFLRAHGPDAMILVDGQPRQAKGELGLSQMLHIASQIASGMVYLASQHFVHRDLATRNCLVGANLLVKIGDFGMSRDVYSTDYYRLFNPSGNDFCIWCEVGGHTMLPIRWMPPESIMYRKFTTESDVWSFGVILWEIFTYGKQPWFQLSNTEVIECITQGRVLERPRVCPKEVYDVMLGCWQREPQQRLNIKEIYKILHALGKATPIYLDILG
smiles,measurement,value
CN(C(=O)CN1CCOCC1)c1ccc2sc3c(-c4cccc5c(=O)cc(N6CC7CCC(C6)O7)oc45)cccc3c2c1 [NU5455],inhibition at 1 µM,0.4%

# From paper PMC6934184, “Selective DNA-PKcs inhibition extends the therapeutic index of localized radiotherapy and chemotherapy” (The Journal of Clinical Investigation, 2019)
